Some test systems named below: HOP-92 NSCLC; SNB-19 CNS; HCT-116 colon; K-562 leukemia; M14 melanoma; HOP-62 NSCLC; NCI-H226 lung; HCC-2998 colon; KM12 colon.
Assay in all cases: growth of human tumour cells (NCI), 48 h

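Following 48 hours of exposure in 96-well plates, responses at five concentrations were used to interpolate endpoints linearly. GI50 marks 50% less growth. TGI: concentration producing complete growth inhibition.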

`Cn1nc(-c2ccccc2)c(C(=O)/C=C/c2ccc(Cl)cc2)c(N2CCCCC2)c1=O`: the TGI in the test on HOP-92 NSCLC was found to be 5.14 µM; in the test with SNB-19 CNS, 4.72 µM; in the test on HCT-116 colon, 3.47 µM; in the test on K-562 leukemia it was 5.39 µM; in the test with M14 melanoma, 9.17 µM; with HOP-62 NSCLC, 5.68 µM.
Consider `CC1=C[C@]2(O)C(=O)[C@H](C)C[C@H]3[C@@H](CC[C@@](C)(O)/C=C\2C1=O)C3(C)C`, for which the TGI was 48.2 µM in the test with HOP-92 NSCLC; more than 100 µM in the test with SNB-19 CNS; more than 79.5 µM in the test with NCI-H226 lung; more than 69.5 µM in the test with HCC-2998 colon; 30.9 µM in the test on HCT-116 colon; more than 100 µM in the test on KM12 colon. The TGI is more than 100 µM in the test on K-562 leukemia, 39.9 µM with M14 melanoma and more than 70.3 µM in the test with HOP-62 NSCLC.
Take `CNC/C(Cl)=N/S(=O)(=O)c1ccc(C)cc1`: the TGI was found to be 51.1 µM with HOP-92 NSCLC; 68.2 µM in the test on SNB-19 CNS; 59.5 µM in the test on NCI-H226 lung; 16.2 µM in the test with HCC-2998 colon; 21.1 µM in the test with HCT-116 colon; 27.7 µM in the test with KM12 colon. Also, the TGI with K-562 leukemia is more than 100 µM; with M14 melanoma, 39.7 µM; in the test on HOP-62 NSCLC, 29.9 µM.
As to `CCOc1ccc(N=Cc2ccc3cc(C)ccc3n2)cc1`, the TGI in the test on HOP-92 NSCLC is more than 100 µM; with SNB-19 CNS, more than 100 µM; in the test with NCI-H226 lung, more than 100 µM; with HCC-2998 colon it was more than 100 µM; in the test on KM12 colon, more than 100 µM; with K-562 leukemia, 69.8 µM. In addition, the TGI in the test with M14 melanoma and with HOP-62 NSCLC was more than 100 µM in each case.
Regarding `CC(C)(C)CC(C)(C)c1cc2c(O)c(c1)Cc1cc(C(C)(C)CC(C)(C)C)cc(c1O)Cc1cc(C(C)(C)CC(C)(C)C)cc(c1O)Cc1cc(C(C)(C)CC(C)(C)C)cc(c1O)Cc1cc(C(C)(C)CC(C)(C)C)cc(c1O)C2`, the TGI with HOP-92 NSCLC, with SNB-19 CNS, in the test with HCC-2998 colon, with HCT-116 colon, in the test on KM12 colon and in the test with K-562 leukemia was more than 100 µM each time. The TGI in the test with M14 melanoma and with HOP-62 NSCLC was more than 100 µM throughout.
`COC(=O)C1=C(O)c2cc(-c3ccccc3)c(-c3ccccc3)c(C#N)c2NC(=O)C1`: the TGI in the test with SNB-19 CNS, in the test on HCC-2998 colon, in the test with HCT-116 colon, with KM12 colon, with K-562 leukemia and with M14 melanoma was more than 100 µM in each case. For the same compound, in the test on HOP-62 NSCLC, the TGI was 96.8 µM.
Regarding `N#CC1=C(N)Oc2c(ccc3ccccc23)C1c1ccccc1` (centres undefined), the GI50 with HOP-92 NSCLC is 0.0413 µM; in the test on SNB-19 CNS, 0.0579 µM; with NCI-H226 lung, 0.463 µM; in the test on HCC-2998 colon, 0.141 µM; with HCT-116 colon, 0.0443 µM; in the test on KM12 colon, 0.0419 µM. Moreover, the GI50 in the test on K-562 leukemia was 0.0322 µM; with M14 melanoma it was 0.0348 µM; in the test on HOP-62 NSCLC it was 0.0555 µM. The TGI turned out to be 12.9 µM with HOP-92 NSCLC; 18.1 µM in the test on SNB-19 CNS; 19.4 µM with NCI-H226 lung; 6.67 µM with HCC-2998 colon; 3.73 µM in the test with HCT-116 colon; 13.5 µM with KM12 colon. The TGI in the test on K-562 leukemia is 22.6 µM; with M14 melanoma it was 13.6 µM; in the test with HOP-62 NSCLC it was 18.6 µM.
As for `COc1ccc2c3c([nH]c2c1[N+](=O)[O-])C(C)N(Cc1ccc([N+](=O)[O-])cc1)CC3` (centres undefined), the TGI in the test on SNB-19 CNS is more than 100 µM; in the test on NCI-H226 lung, 42.4 µM; in the test with HCC-2998 colon, 37.3 µM; in the test on KM12 colon, 49.6 µM; in the test on K-562 leukemia, 77.1 µM; in the test on M14 melanoma it was 35.9 µM.
As to `O=C1C=CC(=O)C12CCc1ccccc12`, the TGI with HOP-92 NSCLC, in the test with SNB-19 CNS, in the test on NCI-H226 lung, with HCC-2998 colon, with HCT-116 colon and in the test on KM12 colon was more than 100 µM in each case. The TGI was more than 85.1 µM with K-562 leukemia, more than 100 µM in the test on M14 melanoma and more than 100 µM in the test with HOP-62 NSCLC.
Take `COc1ccc(-c2cc(=O)c3ccccc3o2)cc1N`: the TGI in the test on HOP-92 NSCLC, in the test with SNB-19 CNS, in the test on NCI-H226 lung, with HCC-2998 colon, in the test on HCT-116 colon and with KM12 colon was more than 100 µM each time. The TGI in the test with K-562 leukemia, in the test on M14 melanoma and in the test with HOP-62 NSCLC was more than 100 µM each time.
For `O=C1[C@H]2ON(c3ccccc3)C(c3ccccc3)[C@H]2C(=O)N1c1ccc(Cc2ccc(N3C(=O)[C@@H]4ON(c5ccccc5)C(c5ccccc5)[C@@H]4C3=O)cc2)cc1` (some centres undefined), the TGI with HOP-92 NSCLC, in the test with NCI-H226 lung, in the test with HCC-2998 colon, with KM12 colon, in the test with K-562 leukemia and in the test with M14 melanoma was more than 100 µM in each case. For the same compound, in the test on HOP-62 NSCLC, the TGI is more than 100 µM.
`O=C1O[C@H](c2ccccc2)[C@@H]2CC3(CCN12)OCCO3`: the TGI in the test on HOP-92 NSCLC, in the test with SNB-19 CNS, in the test with NCI-H226 lung, in the test with HCT-116 colon, in the test with KM12 colon and in the test on K-562 leukemia was more than 100 µM throughout. The TGI in the test with M14 melanoma and in the test with HOP-62 NSCLC was more than 100 µM in each case.
Take `COC(=O)CC[C@]1(C)O[C@H]2[C@H]([C@@H](C)CCCC(C)=O)OC(=O)[C@@H]2C[C@H]1O`: the GI50 in the test with HOP-92 NSCLC was more than 100 µM; in the test on SNB-19 CNS it was more than 100 µM; with HCC-2998 colon it was 29.1 µM; with HCT-116 colon it was more than 100 µM; in the test on KM12 colon it was more than 100 µM; with K-562 leukemia it was more than 100 µM. Moreover, the TGI in the test with HOP-92 NSCLC, in the test on SNB-19 CNS, in the test with HCC-2998 colon, in the test with HCT-116 colon, with KM12 colon and with K-562 leukemia was more than 100 µM throughout.
For the compound `CCN(CC)CCCNC(=O)C1COc2cc(-c3cc(=O)c4ccccc4o3)ccc2O1` (centres undefined), the TGI in the test with HOP-92 NSCLC, in the test with SNB-19 CNS, in the test with NCI-H226 lung, with HCC-2998 colon, in the test on HCT-116 colon and with K-562 leukemia was more than 100 µM throughout. The TGI was 40 µM with M14 melanoma and more than 100 µM in the test on HOP-62 NSCLC.

The record behind these values is PubChem BioAssay (NCI).
